According to US9211261B2, “Immediate release dosage forms containing solid drug dispersions” (Bend Research, Inc., priority 2002, dated 2015):

Assay: In vitro dissolution test of Drug 1 from tablets (simulated intestinal buffer pH 6.8 with 0.5 wt % sodium lauryl sulfate)
Format: physicochemical
Details: 120 mgA tablet of Example 2, 900 mL pH 6.8 buffer + 0.5 wt % SLS, 37° C., 100 rpm, average of two tests
Procedure: An in vitro test may be used to determine whether a dosage form provides a release profile within the scope of the present invention. In vitro tests are well known in the art. One example is a so-called “direct” test, where the dosage form is placed into a stirred USP type 2 dissoette flask containing 900 mL of a dissolution medium maintained at 37° C., such as a buffer solution simulating a gastric environment (10 mM HCl, 100 mM NaCl, pH 2.0, 261 mOsm/kg) or the PBS or MFD solutions previously described. One skilled in the art will understand that in such tests the dissolution medium should act as a sink for the drug in the dosage form. By “sink” is meant that the composition and volume of the dissolution medium is sufficient such that substantially all of the drug in the dosage form will dissolve into the dissolution medium within about 4 hours or less. In some cases a surfactant, such as sodium lauryl sulfate or other excipients may be added to the dissolution medium to ensure the dissolution medium acts as a sink for the drug. The dosage form is placed in a wire support to keep the dosage form off of the bottom of the flask, so that all of its surfaces are exposed to the dissolution medium, and the medium is stirred using paddles that rotate at a rate of 50 rpm. Samples of the dissolution medium are taken at periodic intervals using a VanKel VK8000 autosampling dissoette with automatic receptor solution replacement. The concentration of dissolved drug in the dissolution medium is then determined by High Performance Liquid Chromatography (HPLC), by comparing UV absorbance of samples to the absorbance of drug standards. The mass of dissolved drug in the dissolution medium is then calculated from the concentration of drug in the medium and the volume of the medium, which value is used to calculate the actual amount of drug released from the dosage form, taking into consideration the mass of drug originally present in the dosage form.
Drug 1 dissolution from the tablets of Example 2 was measured using an in vitro test. First, a dissolution medium consisting of a simulated intestinal buffer solution was made by dissolving 6.8 g of KH2PO4 in 750 mL of deionized water with 85 mL 0.2M NaOH. Water was added for a final volume of 1 L. The pH was adjusted to 6.8±0.1 using 0.2M NaOH. Next, 0.5 wt % sodium lauryl sulfate was added to the buffer. A 900 mL sample of this solution was added to each of two vessels in a VanKel dissolution testing apparatus with automatic sampling. The solution temperature was maintained at 37° C., and stirred with a paddle speed of 100 rpm. This dissolution medium acted as a sink for the 120 mgA tablets. After equilibration to 37° C., a tablet of Example 2 was added to each vessel containing the buffer solution, resulting in a Drug 1 concentration of 130 μgA/mL, assuming all of the drug had dissolved. Samples were collected at 5, 15, 20, 35, 45, 60, 75, 90, 120 and 180 minutes, and then analyzed by HPLC using a Waters Symmetry C8 column. The mobile phase consisted of 0.2 vol % H3PO4 (in water)/methanol in the ratio of 15/85 (vol/vol). Drug 1 concentration was calculated by comparing UV absorbance at 256 nm to the absorbance of Drug 1 standards.

CCOC(=O)N1c2ccc(C(F)(F)F)cc2C(N(Cc2cc(C(F)(F)F)cc(C(F)(F)F)c2)C(=O)OC)CC1CC (stereo not shown) [Drug 1, 4-[(3,5-bis-trifluoromethyl-benzyl)-methoxycarbonyl-amino]-2-ethyl-6-trifluoromethyl-3,4-dihydro-2H-quinoline-1-carboxylic acid ethyl ester]
Drug 1 Concentration (time 0 min): 0 μgA/mL
Drug 1 Released (time 0 min): 0 wt %
Drug 1 Concentration (time 5 min): 49 μgA/mL
Drug 1 Released (time 5 min): 37 wt %
Drug 1 Concentration (time 15 min): 114 μgA/mL
Drug 1 Released (time 15 min): 87 wt %
Drug 1 Concentration (time 20 min): 123 μgA/mL
Drug 1 Released (time 20 min): 94 wt %
Drug 1 Concentration (time 35 min): 126 μgA/mL
Drug 1 Released (time 35 min): 96 wt %
Drug 1 Concentration (time 45 min): 126 μgA/mL
Drug 1 Released (time 45 min): 96 wt %
Drug 1 Concentration (time 60 min): 125 μgA/mL
Drug 1 Released (time 60 min): 95 wt %
Drug 1 Concentration (time 75 min): 128 μgA/mL
Drug 1 Released (time 75 min): 98 wt %
Drug 1 Concentration (time 90 min): 127 μgA/mL
Drug 1 Released (time 90 min): 97 wt %
Drug 1 Concentration (time 120 min): 127 μgA/mL
Drug 1 Released (time 120 min): 97 wt %
Drug 1 Concentration (time 180 min): 131 μgA/mL
Drug 1 Released (time 180 min): 100 wt %
